{"source": "patent US20200246347A1", "about": "“Substituted Pyrrolopyridine-Derivatives” (BAYER PHARMA AKTIENGESELLSCHAFT, priority 2017, published 2020)", "key": {"[1]": {"system": "pSer376-SLP-76", "test": "Phosphorylation assay in human cell line (Jurkat E6.1 overexpressing FLAG-tagged SLP-76, a-CD3 stimulated)", "format": "cell-based", "details": "30 min at 37° C., Jurkat E6.1 cells; for % amount of pSer376-SLP-76 @ 10 μM: 10 μM compound; for % amount of pSer376-SLP-76 @ 20 μM: 20 μM compound", "method": "Phosphorylation assays were carried out in Jurkat E6.1 cells from American Type Culture Collection (ATCC) stably overexpressing human FLAG-tagged SLP-76 (proprietary). […] Applied compounds were tested at either fixed concentration of 10 μmol/L and 20 μmol/L or in a 8 point dose response titration of increase compound concentration with 10 nmol/L. 50 nmol/L. 100 nmol/L. 500 nmol/L. 1 μmol/L. 5 μmol/L. 10 μmol/L and 20 μmol/L in triplicates. The cells were washed once in phosphate-buffered saline (pH 7.4). Cells were lysed using a lysis buffer containing 50 mmol/L Tris-Cl (pH 7.5). 150 mM NaCl. 2 mM EDTA. 1% Triton-X 100. 0.5% Na-DOC. 0.1% SDS. […] Probe antibodies used were a rabbit monoclonal antibody supernatant raised against human phospho-Ser376-SLP-76 peptide (proprietary) and for mormalization an a-alpha-Tubulin. mouse monoclonal antibody (Sigma #T9026). […] Cells with a-CD3 treatment only were used as negative control (min control. which represent the minimally possible inhibition of pSer376-SLP-76 by a test compound)\nAUC values of each respective test sample were normalized using the AUC of housekeeping gene alpha-Tubulin and AUC of pSer376-SLP-76 of the min control. The percentage of the amount of pSer-SLP-76 in the treatment samples was calculated using the max control and min control values of the respective Peggy Sue™ run."}, "[2]": {"biological_target": "MAP4K1 (Homo sapiens, UniProt Q92918)", "sequence (Q92918 whole entry)": "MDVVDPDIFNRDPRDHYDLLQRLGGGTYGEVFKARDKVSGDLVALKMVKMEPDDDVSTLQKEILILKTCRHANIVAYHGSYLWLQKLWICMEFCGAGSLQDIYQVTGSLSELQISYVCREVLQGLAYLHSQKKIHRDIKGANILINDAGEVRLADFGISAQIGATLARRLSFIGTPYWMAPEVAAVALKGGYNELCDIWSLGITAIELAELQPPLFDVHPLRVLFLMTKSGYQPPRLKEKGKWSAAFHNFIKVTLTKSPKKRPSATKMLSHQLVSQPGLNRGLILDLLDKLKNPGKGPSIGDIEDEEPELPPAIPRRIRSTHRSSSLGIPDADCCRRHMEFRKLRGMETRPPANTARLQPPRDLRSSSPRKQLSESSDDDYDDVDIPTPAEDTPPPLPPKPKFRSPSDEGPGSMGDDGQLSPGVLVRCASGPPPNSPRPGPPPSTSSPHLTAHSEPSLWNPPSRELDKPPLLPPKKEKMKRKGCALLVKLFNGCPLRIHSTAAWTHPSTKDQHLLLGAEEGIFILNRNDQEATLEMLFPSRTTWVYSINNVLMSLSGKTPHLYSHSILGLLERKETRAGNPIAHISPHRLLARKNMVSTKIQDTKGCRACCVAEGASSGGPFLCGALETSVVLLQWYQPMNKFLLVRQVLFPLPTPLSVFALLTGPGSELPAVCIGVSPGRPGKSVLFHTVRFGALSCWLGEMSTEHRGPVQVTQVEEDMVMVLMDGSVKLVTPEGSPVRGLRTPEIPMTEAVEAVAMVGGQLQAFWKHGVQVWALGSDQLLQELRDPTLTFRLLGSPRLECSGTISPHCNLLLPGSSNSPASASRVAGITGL", "test": "biochemical"}}, "data": [{"smiles": "O=C(NCCN1CCOCC1)Nc1ccc(Oc2ccnc3[nH]cc(C(F)(F)F)c23)cc1", "note": "[Example 1, 1-[2-(morpholin-4-yl)ethyl]-3-(4-{[3-(trifluoromethyl)-1H-pyrrolo[2,3-b]pyridin-4-yl]oxy}phenyl)urea]", "values": [{"measurement": "% amount of pSer376-SLP-76 @ 10 μM", "setting": "[1]", "result": 40.8, "unit": "%"}, {"measurement": "% amount of pSer376-SLP-76 @ 20 μM", "setting": "[1]", "result": 16.0, "unit": "%"}]}, {"smiles": "Cc1cc(NC(=O)NCCCN2CCOCC2)ccc1Oc1ccnc2[nH]cc(C(F)(F)F)c12", "note": "[Example 4, 1-(3-methyl-4-{[3-(trifluoromethyl)-1H-pyrrolo[2,3-b]pyridin-4-yl]oxy}phenyl)-3-[3-(morpholin-4-yl)propyl]urea]", "values": [{"measurement": "% amount of pSer376-SLP-76 @ 10 μM", "setting": "[1]", "result": 45.6, "unit": "%"}, {"measurement": "% amount of pSer376-SLP-76 @ 20 μM", "setting": "[1]", "result": 18.1, "unit": "%"}, {"measurement": "IC50", "setting": "[2]", "result": 74, "unit": "nM"}]}, {"smiles": "Cc1cc(NC(=O)NCCN2CCOCC2)ccc1Oc1ccnc2[nH]cc(C(F)(F)F)c12", "note": "[Example 5, 1-(3-methyl-4-{[3-(trifluoromethyl)-1H-pyrrolo[2,3-b]pyridin-4-yl]oxy}phenyl)-3-[2-(morpholin-4-yl)ethyl]urea]", "values": [{"measurement": "% amount of pSer376-SLP-76 @ 10 μM", "setting": "[1]", "result": 48.1, "unit": "%"}, {"measurement": "% amount of pSer376-SLP-76 @ 20 μM", "setting": "[1]", "result": 25.3, "unit": "%"}]}, {"smiles": "N#Cc1cc(NC(=O)NCCN2CCOCC2)ccc1Oc1ccnc2[nH]cc(C(F)(F)F)c12", "note": "[Example 6, 1-(3-cyano-4-{[3-(trifluoromethyl)-1H-pyrrolo[2,3-b]pyridin-4-yl]oxy}phenyl)-3-[2-(morpholin-4-yl)ethyl]urea]", "values": [{"measurement": "IC50", "setting": "[2]", "result": 212, "unit": "nM"}]}, {"smiles": "N#Cc1cc(NC(=O)NCCCN2CCOCC2)ccc1Oc1ccnc2[nH]cc(C(F)(F)F)c12", "note": "[Example 7, 1-(3-cyano-4-{[3-(trifluoromethyl)-1H-pyrrolo[2,3-b]pyridin-4-yl]oxy}phenyl)-3-[3-(morpholin-4-yl)propyl]urea]", "values": [{"measurement": "IC50", "setting": "[2]", "result": 138, "unit": "nM"}]}]}
